Data reported in PubChem BioAssay (NCI).
Values joined by “and” are separate entries in the source; they are usually repeats but may differ in a detail not shown here. Equal values may be shown once.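 1) Cells in 96-well plates. 2) Compound, 48 h, 5 concentrations. 3) Linear interpolation between surrounding doses. 4) Unreached endpoint = highest concentration. Here, GI50 denotes the concentration required for 50% inhibition of growth. TGI marks complete inhibition of growth.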

Key:
Assay in all cases: DTP human tumour cell line panel, 48 h
MALME-3M melanoma = test system: MALME-3M melanoma
BT-549 breast = test system: BT-549 breast
HCT-116 colon = test system: HCT-116 colon
SF-295 CNS = test system: SF-295 CNS
U251 CNS = test system: U251 CNS
NCI-H23 lung = test system: NCI-H23 lung
SNB-19 CNS = test system: SNB-19 CNS
MDA-N = test system: MDA-N
SNB-75 CNS = test system: SNB-75 CNS
DU-145 prostate = test system: DU-145 prostate

Row | SMILES | TGI (MALME-3M melanoma) [µM] | TGI (BT-549 breast) [µM] | TGI (HCT-116 colon) [µM] | TGI (SF-295 CNS) [µM] | TGI (U251 CNS) [µM] | TGI (NCI-H23 lung) [µM] | TGI (SNB-19 CNS) [µM] | TGI (MDA-N) [µM] | TGI (SNB-75 CNS) [µM] | TGI (DU-145 prostate) [µM] | GI50 (SNB-75 CNS)
1 | COc1ccc(-c2cc(-c3ccc(C)cc3)n(C3OC(COC(C)=O)C(OC(C)=O)C(OC(C)=O)C3OC(C)=O)c(=S)c2C#N)cc1 (stereo unspecified) | > 100 | > 100 | > 100 | > 100 | > 100 | > 100 | > 100 | > 100 | 92 | > 100 | –
2 | CC1=NNC(=O)C1C1(C(=O)O)CC(c2c[nH]c3ccccc23)=NC(=S)N1 (stereo unspecified) | 74.3 | > 100 | > 100 | 91.1 | 69.8 | 56.8 | > 100 | > 100 | 62.9 | > 100 | –
3 | CC1OC(NCCNCCNC2OC(C)C(O)C(O)C2O)C(O)C(O)C1O (stereo unspecified) | > 100 | > 100 | > 100 | > 100 | > 100 | > 100 | > 100 | > 100 | > 100 | > 100 | –
4 | CC(=O)OCC1OC(n2c(C)c(C)cc(C#N)c2=S)C(OC(C)=O)C(OC(C)=O)C1OC(C)=O (stereo unspecified) | > 100 | > 100 | > 100 | > 100 | > 100 | > 100 | > 100 | > 100 | > 100 | > 100 | 17 µM and > 100 µM
5 | O=C(COc1cc(=O)oc2ccccc12)c1ccccc1 | > 100 | > 100 | 32 | 87.4 | 34.1 | 65.2 | 48.9 | > 100 | > 100 | > 100 | –
6 | CC(=O)C1=C(C)N(c2ccccc2)C2(O)C3=C(C(=O)c4ccccc4C3=O)C(O)=CC12Cl (stereo unspecified) | 4.91 | 30.3 | > 100 | 40.6 | 50.1 | 39.9 | 23.5 | 6.88 | 16.2 | > 100 | –
7 | CCOC(CBr)OC1C(=O)OCC1(C)C (stereo unspecified) | > 100 | > 100 | > 100 | > 100 | > 100 | > 100 | > 100 | > 100 | > 100 | > 100 | –
8 | CCOC(=O)/C(C(N)=O)=C(\O)C(=O)/C=C(\O)c1ccc(Cl)cc1 | 45.1 | 33.6 | 28.7 | > 100 | 29.1 | 33.6 | > 100 | 38.5 | 31 | 35.8 | –
9 | O=C(NC(=S)Nc1ccc(Br)cc1)c1ccc2c(c1)Sc1ccccc1O2 | > 100 | > 100 | > 100 | > 100 | > 100 | > 100 | > 100 | > 100 | 19.3 | > 100 | –
10 | Cc1ccc(C(=O)Nc2ccc(S(=O)(=O)O)c3cc(S(=O)(=O)O)cc(S(=O)(=O)O)c23)cc1NC(=O)c1cccc(NC(=O)Nc2cccc(C(=O)Nc3cc(C(=O)Nc4ccc(S(=O)(=O)O)c5cc(S(=O)(=O)O)cc(S(=O)(=O)O)c45)ccc3C)c2)c1 | > 100 | > 100 | > 100 | > 100 | > 100 | > 100 | > 100 | > 100 | > 100 | > 100 | –
11 | COc1cc2ncnc(NS(=O)(=O)c3cc4ccccc4s3)c2cc1OC | > 100 | > 100 | > 100 | > 100 | > 100 | > 100 | > 100 | > 100 | > 100 | > 100 | –
12 | COc1ccc(N2C(=O)C3ON(Cc4ccc(CC(N)=O)cc4)C(c4c5ccccc5c(C)c5ccccc45)C3C2=O)cc1 (stereo unspecified) | > 100 | > 100 | 56.9 | > 100 | > 100 | > 100 | > 100 | > 100 | 38.1 | 78 | –
13 | CCN(CC)Cc1cc(N=Nc2c(O)ccc3c(N=Nc4ccc(O)c(CN(CC)CC)c4)c(O)ccc23)ccc1O | 21.5 | 9.11 | 4.38 | 20 | 15.5 | 12.7 | 15.6 | 18 | 27.7 | 9.55 | –
14 | COc1cc(/C=C2\C(=O)N(c3cccc(NC(C)=O)c3)C(c3ccccc3)S2(=O)=O)cc(OC)c1OC (stereo unspecified) | > 100 | > 100 | > 100 | > 100 | > 100 | > 100 | > 100 | > 100 | > 100 | > 100 | –
15 | Cc1nc2c(Cl)cc(Cl)cc2c2c1CCO2 | > 100 | > 100 | > 100 | > 100 | > 100 | > 100 | > 100 | > 100 | > 100 | > 100 | –
16 | O=C(CCCc1cccc2[nH]c3c(c12)CN(Cc1ccccc1)CC3)c1ccc(F)cc1 | > 100 | > 100 | > 100 | > 100 | > 100 | > 52.3 | > 100 | > 100 | > 100 | > 100 | –
17 | COc1ccc(SCc2cc(OC)ccc2OC)cc1 | > 100 | > 74.3 | > 100 | > 100 | > 100 | > 100 | > 100 | 32.7 | > 52.8 | > 100 | –
18 | CCC1c2[nH]c3ccccc3c2C[C@H]2C(=O)NC(C)C(=O)N12 (stereo partly specified) | > 100 | > 100 | > 100 | > 100 | > 100 | > 100 | > 100 | > 100 | > 100 | > 100 | –
19 | Cc1ccc([N+](=O)[O-])cc1S(=O)(=O)Nc1ccc(C2=NN(S(=O)(=O)c3cc([N+](=O)[O-])ccc3C)C(c3cccs3)C2)cc1 (stereo unspecified) | > 100 | > 100 | 77 | 69.2 | > 100 | 59.9 | > 100 | > 100 | > 100 | > 100 | –
20 | CCO/N=C\c1ccc2oc(-c3ccccc3)cc(=O)c2c1 | 43.1 | 24.4 | 8.23 | 16.3 | 17.6 | 9.05 | 19.8 | 0.105 | 13.8 | 13.3 | –
21 | CCCCn1c(=O)[nH]c2c(N)ncnc21 | > 100 | > 100 | > 100 | > 100 | > 100 | > 100 | > 100 | > 100 | > 100 | > 100 | –
22 | O=[N+]([O-])c1ccc2c(c1)nc1n2C(c2c(F)cccc2F)SC1 (stereo unspecified) | > 100 | > 100 | > 100 | > 100 | > 100 | > 100 | > 100 | > 100 | > 100 | > 100 | –
23 | NCCCn1c(Cl)nc2ccccc21 | > 100 | > 100 | > 100 | > 100 | > 100 | > 100 | > 100 | > 100 | > 100 | > 100 | –
